Assay results: patent publication US20190284162A1, “USE OF A DIFLUORO-(2-HYDROXYPROPYL)PYRIDINE COMPOUND AS A FUNGICIDE FOR CONTROL OF PHYTOPATHOGENIC FUNGI OF CORN” (Dow AgroSciences LLC, priority 2016, published 2019)

What was measured:
Format in all cases: in vivo
Puccinia polysora = assay: Field assessment of Puccinia polysora (PUCCPY), brown rust, in corn
Source text: Field Assessment of Puccinia polysora (PUCCPY) in Corn:
(§1) A fungicidal treatment containing Compound I, applied alone in an EC formulation at 100 grams of active ingredient per hectare (g ai/ha) and tank mixed with an adjuvant (Agnique BP-420, 50% w/w at 0.3% v/v), was sprayed on corn plants (ZEAMX, P30R50 variety) twice at the growth stages 18 (8 leaves unfolded, application A) and 39 (stem elongation; prior to tassle emergence, application B) at rates of 25, 50, 100, 125 and 150 g ai/ha. The experimental plots were inoculated with brown rust 24 hr after each application. The treatment was part of an experimental trial designed as a randomized complete block with four replications and a plot of approximately 1×3 m. Compound I was applied at water volume of 200 L/ha, using a backpack precision plot sprayer (BKPCKAIR, 2 and 3 m band width, Flat Fan XR110.015 Nozzle) and pressurized at 45 psi.
(§2) Disease severity (percentage of visual diseased foliage on whole plot) was assessed six times (15-49 days after application B, DAAB). The disease infection was recorded following EPPO PP1/26 guideline prescriptions. Area under the disease progress curve (AUDPC) was calculated for each plot using the sets of recorded severity data. Relative AUDPC (% control based on AUDPC) was calculated as percent of the nontreated control.

Exserohilum turcicum = assay: Field assessment of Exserohilum turcicum (SETOTU) in corn
Source text: Field Assessment of Exserohilum turcicum (SETOTU) in Corn: A fungicidal treatment containing Compound I, tank mixed with an adjuvant (Agnique BP-420, 50% w/w at 0.3% v/v), was sprayed on corn plants once at the growth stage 51 (beginning tassel emergence) at rates of 50, 75, 100, and 150 g ai/ha. The treatment was part of an experimental trial designed as a randomized complete block with four replications. Compound I was applied at water volume of 140 L/ha, using a backpack precision plot sprayer. Disease severity was assessed as combined percent visual necrosis on leaves ear-1, ear and ear+1. Severity was assessed twice at 24 DAA1 (days after application 1) and 32 DAA1.

Phaeosphaeria maydis = assay: Field assessment of Phaeosphaeria maydis (PHSPMA), phaeosphaeria leaf spot, in corn
Source text: Field Assessment of Phaeosphaeria maydis (PHSPMA) in Corn:
as §1, with “phaeosphaeria leaf spot” for “brown rust”
as §2

Cercospora zeae-maydis = assay: Field assessment of Cercospora zeae-maydis (CERCZM), grey leaf spot, in corn
Source text: Field Assessment of Cercospora zeae-Maydis (CERCZM) in Corn:
as §1, with “Formula” for “P30R50”, “grey leaf spot” for “brown rust”
as §2

[1] = 25 g ai/ha, with adjuvant Agnique BP-420, two applications
[2] = 50 g ai/ha, with adjuvant Agnique BP-420, two applications
[3] = 100 g ai/ha, with adjuvant Agnique BP-420, two applications
[4] = 100 g ai/ha, without adjuvant, two applications
[5] = 125 g ai/ha, with adjuvant Agnique BP-420, two applications
[6] = 150 g ai/ha, with adjuvant Agnique BP-420, two applications

## N#Cc1ccc(Oc2ccc(C(F)(F)C(O)(Cn3ncnc3S)c3ccc(F)cc3F)nc2)cc1 (centres unmarked) [Compound I, 4-((6-(2-(2,4-difluorophenyl)-1,1-difluoro-2-hydroxy-3-(5-mercapto-1H-1,2,4-triazol-1-yl)propyl)pyridin-3-yl)oxy)benzonitrile]
Puccinia polysora; [1]
  Disease (% Control) PUCCPY, based on AUDPC: A (76-100)
Puccinia polysora; [2]
  Disease (% Control) PUCCPY, based on AUDPC: A (76-100)
Puccinia polysora; [3]
  Disease (% Control) PUCCPY, based on AUDPC: A (76-100)
Puccinia polysora; [4]
  Disease (% Control) PUCCPY, based on AUDPC: A (76-100)
Puccinia polysora; [5]
  Disease (% Control) PUCCPY, based on AUDPC: A (76-100)
Puccinia polysora; [6]
  Disease (% Control) PUCCPY, based on AUDPC: A (76-100)
Exserohilum turcicum; 50 g ai/ha, 24 DAA1, tank mixed with Agnique BP-420, untreated control 36.1
  Disease severity: combined visual necrosis on leaves ear-1, ear and ear+1: 46.5%
Exserohilum turcicum; 50 g ai/ha, 32 DAA1, tank mixed with Agnique BP-420, untreated control 50.4
  Disease severity: combined visual necrosis on leaves ear-1, ear and ear+1: 45.5%
Exserohilum turcicum; 75 g ai/ha, 24 DAA1, tank mixed with Agnique BP-420, untreated control 36.1
  Disease severity: combined visual necrosis on leaves ear-1, ear and ear+1: 45.0%
Exserohilum turcicum; 75 g ai/ha, 32 DAA1, tank mixed with Agnique BP-420, untreated control 50.4
  Disease severity: combined visual necrosis on leaves ear-1, ear and ear+1: 44.2%
Exserohilum turcicum; 100 g ai/ha, 24 DAA1, tank mixed with Agnique BP-420, untreated control 36.1
  Disease severity: combined visual necrosis on leaves ear-1, ear and ear+1: 37.2%
Exserohilum turcicum; 100 g ai/ha, 32 DAA1, tank mixed with Agnique BP-420, untreated control 50.4
  Disease severity: combined visual necrosis on leaves ear-1, ear and ear+1: 31.6%
Exserohilum turcicum; 150 g ai/ha, 24 DAA1, tank mixed with Agnique BP-420, untreated control 36.1
  Disease severity: combined visual necrosis on leaves ear-1, ear and ear+1: 37.9%
Exserohilum turcicum; 150 g ai/ha, 32 DAA1, tank mixed with Agnique BP-420, untreated control 50.4
  Disease severity: combined visual necrosis on leaves ear-1, ear and ear+1: 33.3%
Phaeosphaeria maydis; [1]
  Disease (% Control) PHSPMA, based on AUDPC: B (51-75)
Phaeosphaeria maydis; [2]
  Disease (% Control) PHSPMA, based on AUDPC: B (51-75)
Phaeosphaeria maydis; [3]
  Disease (% Control) PHSPMA, based on AUDPC: A (76-100)
Phaeosphaeria maydis; [4]
  Disease (% Control) PHSPMA, based on AUDPC: B (51-75)
Phaeosphaeria maydis; [5]
  Disease (% Control) PHSPMA, based on AUDPC: A (76-100)
Phaeosphaeria maydis; [6]
  Disease (% Control) PHSPMA, based on AUDPC: A (76-100)
Cercospora zeae-maydis; [1]
  Disease (% Control) CERCZM, based on AUDPC: B (51-75)
Cercospora zeae-maydis; [2]
  Disease (% Control) CERCZM, based on AUDPC: B (51-75)
Cercospora zeae-maydis; [3]
  Disease (% Control) CERCZM, based on AUDPC: B (51-75)
Cercospora zeae-maydis; [4]
  Disease (% Control) CERCZM, based on AUDPC: C (26-50)
Cercospora zeae-maydis; [5]
  Disease (% Control) CERCZM, based on AUDPC: A (76-100)
Cercospora zeae-maydis; [6]
  Disease (% Control) CERCZM, based on AUDPC: A (76-100)
